From patent US10245261B2, “Substituted indol-5-ol derivatives and their therapeutic applications” (NantBioScience, Inc., priority 2013, dated 2019)
Read-outs that look alike come from different tables or passages of the source.

Columns and labels:
[1] = tested on: human MIAPaCa-2 pancreatic carcinoma xenograft; assay: Pancreatic carcinoma xenograft in athymic nude mice; format: in vivo, mouse; conditions: MIAPaCa-2 xenograft; for anti-tumor effect: nude mice, single agent
Experimental: The objective of the third study was to evaluate antitumor activities of novel multiple-kinase inhibitor NTW-3475 in human MIAPaCa-2 pancreatic carcinoma xenograft in athymic nude-Faxn1 mice.
Four animals were randomly assigned to study groups. Each animal was weighed, and then injected subcutaneously in the left and right flank area with 0.1 ml of 5.0×10^7 MIAPaCa-2 cells per mL.
Each test or control animal was on a 5-day on, two-day off for two cycles treatment schedule with negative control vehicle, positive control Abraxane at 20 mg/kg or 25, 50 mg/kg of NTW-3475. Tumor growth was measured with a digital hand held caliper twice weekly (once tumor emerges) prior to the first dosing and then two to three times weekly until euthanized.
The objective of the third study was to evaluate antitumor activities of novel multiple-kinase inhibitor Compound 10, 11, 12, 53, 68, 82, 83, 88, and 90 in human MIAPaCa-2 pancreatic carcinoma xenograft in athymic nude-Faxn1 mice.
Each test or control animal was on a 5-day on, two-day off for three cycles treatment schedule with negative control vehicle or 40 mg/kg of Compound 10, 11, 12, 53, 68, 82, 83, 88 and 90. Tumor growth was measured with a digital hand held caliper twice weekly (once tumor emerges) prior to the first dosing and then two to three times weekly until euthanized.

[2] = tested on: K562; assay: CellTiterBlue cell growth inhibition; format: cell-based; conditions: Homo sapiens; K562, 72 hours
Experimental: (§1) This example illustrated the proliferating cell growth inhibition of selected compounds from this invention. To do this, the cells were seeded into fresh Iscove's growth medium at a density of 0.4e6 cells/ml and grown in log phase for 24 hr. Cells were then resuspended in their fresh respective growth media at 0.1e^6 cells/ml and plated into 384 well black, clear-bottom microplates at 36 ul/well. Test compounds and controls were initially dissolved in DMSO at the desired concentration, then serially diluted to the assay buffer. These solutions were added and cells were incubated for 72 hours at 37° C. CellTiterBlue (Promega cat# G7572) was added on the Beckman FX. Plates were returned to the 37° C. CO2 incubator for 4 hr and then fluorescence was determined on the Victor plate reader. Data were processed using Microsoft Excel, and GI50 values were generated using Prism (GraphPad Software, San Diego, Calif.).

[3] = tested on: MV4.11; assay: CellTiterBlue cell growth inhibition; format: cell-based; conditions: Homo sapiens; MV4.11, 72 hours
Experimental: as §1

[4] = target: Abl(h) (Homo sapiens, UniProt P00519); assay: KinaseProfiler kinase assay; format: biochemical
Abl(h), sequence (P00519 whole entry): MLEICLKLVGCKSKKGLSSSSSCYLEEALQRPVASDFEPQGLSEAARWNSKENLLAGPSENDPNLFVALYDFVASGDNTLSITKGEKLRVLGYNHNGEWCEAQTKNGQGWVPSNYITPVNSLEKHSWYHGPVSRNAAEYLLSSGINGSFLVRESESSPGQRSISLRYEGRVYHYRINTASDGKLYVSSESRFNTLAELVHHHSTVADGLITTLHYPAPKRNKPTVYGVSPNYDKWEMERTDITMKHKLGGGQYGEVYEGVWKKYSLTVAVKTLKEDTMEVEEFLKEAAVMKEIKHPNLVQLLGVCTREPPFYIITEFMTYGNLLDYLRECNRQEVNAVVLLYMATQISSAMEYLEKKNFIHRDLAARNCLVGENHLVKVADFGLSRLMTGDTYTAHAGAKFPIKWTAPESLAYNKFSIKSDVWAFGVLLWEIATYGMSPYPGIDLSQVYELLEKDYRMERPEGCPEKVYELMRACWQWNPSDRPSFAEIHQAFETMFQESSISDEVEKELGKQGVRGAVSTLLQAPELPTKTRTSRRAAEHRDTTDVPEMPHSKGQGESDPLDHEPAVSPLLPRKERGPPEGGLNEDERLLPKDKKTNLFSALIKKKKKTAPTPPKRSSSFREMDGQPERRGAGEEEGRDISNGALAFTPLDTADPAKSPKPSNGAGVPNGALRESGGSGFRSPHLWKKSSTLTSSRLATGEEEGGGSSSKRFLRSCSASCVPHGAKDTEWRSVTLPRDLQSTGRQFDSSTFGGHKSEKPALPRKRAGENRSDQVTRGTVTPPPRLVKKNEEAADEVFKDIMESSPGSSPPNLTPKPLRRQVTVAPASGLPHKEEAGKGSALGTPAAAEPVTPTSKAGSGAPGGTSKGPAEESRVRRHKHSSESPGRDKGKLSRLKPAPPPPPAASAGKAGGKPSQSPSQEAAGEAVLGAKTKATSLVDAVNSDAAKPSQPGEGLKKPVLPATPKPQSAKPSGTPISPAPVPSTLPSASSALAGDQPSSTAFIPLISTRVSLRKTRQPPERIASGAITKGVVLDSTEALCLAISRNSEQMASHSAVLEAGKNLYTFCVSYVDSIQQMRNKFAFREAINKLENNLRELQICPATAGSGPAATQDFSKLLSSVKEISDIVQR

[5] = target: KDR(h) (Homo sapiens, UniProt P35968); assay: KinaseProfiler kinase assay; format: biochemical
KDR(h), sequence (P35968 20-1356): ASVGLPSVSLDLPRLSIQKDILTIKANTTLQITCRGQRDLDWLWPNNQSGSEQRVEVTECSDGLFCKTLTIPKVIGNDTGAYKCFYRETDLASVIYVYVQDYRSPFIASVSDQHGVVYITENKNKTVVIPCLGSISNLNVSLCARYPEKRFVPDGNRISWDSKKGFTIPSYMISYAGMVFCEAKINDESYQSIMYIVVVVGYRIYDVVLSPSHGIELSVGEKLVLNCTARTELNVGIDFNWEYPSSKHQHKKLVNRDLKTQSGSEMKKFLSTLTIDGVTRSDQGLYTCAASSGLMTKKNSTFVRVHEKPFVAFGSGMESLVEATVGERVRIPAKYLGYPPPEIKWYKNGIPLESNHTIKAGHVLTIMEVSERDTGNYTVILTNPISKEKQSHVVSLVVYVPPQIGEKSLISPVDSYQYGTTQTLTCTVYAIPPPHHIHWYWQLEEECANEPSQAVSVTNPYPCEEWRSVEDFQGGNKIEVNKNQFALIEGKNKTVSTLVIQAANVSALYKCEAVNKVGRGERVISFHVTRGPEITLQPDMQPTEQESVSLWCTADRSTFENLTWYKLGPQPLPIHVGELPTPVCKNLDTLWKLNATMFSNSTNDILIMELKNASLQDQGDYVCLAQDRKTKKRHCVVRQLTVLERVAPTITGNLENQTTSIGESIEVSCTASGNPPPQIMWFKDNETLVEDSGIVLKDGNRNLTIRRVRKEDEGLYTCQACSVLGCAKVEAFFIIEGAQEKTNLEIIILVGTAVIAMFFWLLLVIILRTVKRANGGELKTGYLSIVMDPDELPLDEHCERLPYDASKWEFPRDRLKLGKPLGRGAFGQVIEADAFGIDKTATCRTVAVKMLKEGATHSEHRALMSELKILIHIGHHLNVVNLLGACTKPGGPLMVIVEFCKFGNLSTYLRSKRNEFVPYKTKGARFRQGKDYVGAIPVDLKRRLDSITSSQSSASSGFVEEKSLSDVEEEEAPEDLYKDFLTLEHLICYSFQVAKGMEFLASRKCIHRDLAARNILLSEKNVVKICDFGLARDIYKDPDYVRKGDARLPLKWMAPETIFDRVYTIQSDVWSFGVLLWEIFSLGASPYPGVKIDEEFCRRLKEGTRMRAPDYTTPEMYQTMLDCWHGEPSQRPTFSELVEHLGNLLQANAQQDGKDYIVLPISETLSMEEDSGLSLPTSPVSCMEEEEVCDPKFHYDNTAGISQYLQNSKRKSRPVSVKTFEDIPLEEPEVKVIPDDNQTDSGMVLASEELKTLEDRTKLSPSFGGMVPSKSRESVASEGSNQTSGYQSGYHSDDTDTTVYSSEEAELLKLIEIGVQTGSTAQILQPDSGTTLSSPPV

[6] = target: T1, Aurora-A(h) (Homo sapiens, UniProt O14965); assay: KinaseProfiler kinase assay; format: biochemical; conditions: for inhibition at 1 µM: read-out: % Inhibition @1 μM Auroro-A
T1 sequence (O14965 1-403): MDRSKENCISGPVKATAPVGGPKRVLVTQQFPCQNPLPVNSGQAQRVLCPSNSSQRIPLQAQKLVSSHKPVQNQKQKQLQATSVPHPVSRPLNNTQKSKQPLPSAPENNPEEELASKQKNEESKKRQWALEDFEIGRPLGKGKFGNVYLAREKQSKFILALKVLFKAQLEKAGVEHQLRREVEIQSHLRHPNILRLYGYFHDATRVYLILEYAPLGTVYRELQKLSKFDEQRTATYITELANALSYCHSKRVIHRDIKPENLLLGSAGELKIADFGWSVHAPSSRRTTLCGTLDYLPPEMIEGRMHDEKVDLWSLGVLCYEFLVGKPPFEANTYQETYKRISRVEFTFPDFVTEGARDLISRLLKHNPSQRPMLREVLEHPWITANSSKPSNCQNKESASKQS
Summary of the method: (§2)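 Each enzyme was assayed radiometrically: 40 min room-temperature reaction with [γ-33P]ATP and 10 mM Mg acetate, acid-stopped, filtered, scintillation-counted.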

[7] = target: cSRC(h) (Homo sapiens, UniProt P12931); assay: KinaseProfiler kinase assay; format: biochemical
cSRC(h), sequence (P12931 whole entry): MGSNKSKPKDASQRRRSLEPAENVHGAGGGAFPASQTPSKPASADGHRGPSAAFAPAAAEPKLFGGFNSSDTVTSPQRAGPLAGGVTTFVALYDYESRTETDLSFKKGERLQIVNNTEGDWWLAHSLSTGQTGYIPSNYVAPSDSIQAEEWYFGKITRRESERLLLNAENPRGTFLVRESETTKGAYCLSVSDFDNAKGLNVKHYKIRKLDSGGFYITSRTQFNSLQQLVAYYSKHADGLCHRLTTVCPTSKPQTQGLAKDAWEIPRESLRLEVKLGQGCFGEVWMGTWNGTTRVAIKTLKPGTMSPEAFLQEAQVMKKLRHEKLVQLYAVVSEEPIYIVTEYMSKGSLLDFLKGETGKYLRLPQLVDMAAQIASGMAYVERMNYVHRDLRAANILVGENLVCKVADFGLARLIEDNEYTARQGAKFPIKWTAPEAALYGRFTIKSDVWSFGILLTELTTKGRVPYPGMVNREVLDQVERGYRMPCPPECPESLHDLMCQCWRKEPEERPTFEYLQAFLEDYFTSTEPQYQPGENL
Summary of the method: as §2

[8] = read-out: IC50 (nM) Auroro-A (h)

Row | SMILES | anti-tumor effect [1] | GI50 [2] [nM] | GI50 [3] [nM] | inhibition at 0.1 µM [4] [%] | inhibition at 1 µM [4] [%] | IC50 ([4]; read-out: IC50 (nM) Abl (h)) [nM] | inhibition at 0.1 µM [5] [%] | inhibition at 1 µM [5] [%] | inhibition at 0.1 µM [6] [%] | inhibition at 1 µM [6] [%] | IC50 [6, 8] [nM] | inhibition at 0.1 µM [7] [%] | inhibition at 1 µM [7] [%] | IC50 ([7]; read-out: IC50 (nM) cSrc (h)) [nM] | anti-tumor effect in combination with Abraxane [1] | IC50 ([5]; read-out: IC50 (nM) KDR (h)) [nM] | IC50 ([4]; Abl, read-out: IC50) [nM] | IC50 ([5]; VEGFR2, read-out: IC50) [nM] | IC50 ([6]; Aurora-A, read-out: IC50) [nM] | IC50 ([7]; cSrc, read-out: IC50) [nM]
1 | Cc1cc2c(F)c(Oc3nc(Nc4cc(C5CC5)[nH]n4)cc(N4CCN(C)CC4)n3)ccc2[nH]1 [Compound 10] | strong anti-tumor effect | 0.19 | 0.19 | 110 | 112 | 0.5 | 93 | 95 | 98 | 99 | 2 | 103 | 100 | 3 |  |  |  |  |  | 
2 | C/C=C/c1cc(Nc2cc(N3CCNCC3)nc(Oc3ccc4[nH]c(C)cc4c3F)n2)n[nH]1 [Compound 68] | strong anti-tumor effect | 0.26 | 0.16 |  | 107 | 0.3 |  | 92 |  | 99 | 10 |  | 96 | 2 | significant antitumor efficacy | 12 |  |  |  | 
3 | C/C=C/c1cc(Nc2cc(N3CCN(CCO)CC3)nc(Oc3cc(F)c4[nH]c(C)cc4c3F)n2)n[nH]1 [Compound 88] | strong anti-tumor effect | 0.6 | 0.16 |  | 113 | 1 |  | 96 |  | 100 |  |  | 100 | 4 |  | 44 |  |  |  | 
4 | C/C=C/c1cc(Nc2cc(N3CCN(C)CC3)nc(Oc3cc(F)c4[nH]c(C)cc4c3F)n2)n[nH]1 [NTW-3456] | some anti-tumor activity |  |  |  |  |  |  |  |  |  |  |  |  |  | significant anti-tumor activity |  |  |  |  | 
5 | C/C=C/c1cc(Nc2cc(N3CCN(C)CC3)nc(Oc3ccc4[nH]c(C)cc4c3F)n2)n[nH]1 [Compound 53] |  | 0.69 | 0.15 |  | 109 |  |  | 95 |  | 97 |  |  | 98 |  |  |  | 0.6 | 16 | 4 | 2
6 | Cc1cc2c(F)c(Oc3nc(Nc4cc(C5CC5)[nH]n4)cc(N4CCNCC4)n3)ccc2[nH]1 [Compound 11, N-(5-cyclopropyl-1H-pyrazol-3-yl)-2-((4-fluoro-2-methyl-1H-indol-5-yl)oxy)-6-(piperazin-1-yl)pyrimidin-4-amine] | strong anti-tumor effect | 0.41 | 0.29 | 108 | 111 | 0.5 | 92 | 96 | 99 | 100 | < 0.1 | 98 | 101 | 3 |  | 12 |  |  |  | 
7 | Cc1cc2c(F)c(Oc3nc(Nc4cc(C5CC5)[nH]n4)cc(N4CCNCC4)n3)cc(F)c2[nH]1 [Compound 82] | strong anti-tumor effect | 0.31 | 0.28 |  | 106 | 0.2 |  | 95 |  | 100 | 4 |  | 100 | 2 | significant antitumor efficacy | 11 |  |  |  | 
